The nature of series [1]: Growth inhibition of human WI26 cells incubated for 72 hrs by MTT assay.
For series [2], the system named is NCI-H460. Description: Growth inhibition of human NCI-H460 cells incubated for 72 hrs by MTT assay. The format is functional. Particulars: NCI-H460, 72 h.
The subject of series [3] is Mus musculus. Description: Effect on tumor AIMP2 expression in BALB/c mouse xenografted with human NCI-H460 cells at 40 mg/kg, ip dosed every other day for 13 days by SDS-PAGE and Western blotting analysis. The format is ADME, organism-based. To be noted: in vivo, 312 h. (In general: In xenograft studies the graft and the host belong to different species.)
For series [4], the system named is A549. Briefly: Growth inhibition of human A549 cells incubated for 72 hrs by MTT assay. The format is functional. Particulars: A549, 72 h. For orientation: Tetrazolium dyes change colour on reduction, which living cells bring about.
For series [5], the system named is NCI-H460. Briefly: Antitumor activity against human NCI-H460 cells xenografted in BALB/c mouse assessed as decrease in tumor size at 40 mg/kg, ip dosed every other day for 13 days. Type of series: functional, organism-based.
Series [6] can be described thus: Drug level in tumor of BALB/c mouse xenografted with human NCI-H460 cells […] at 40 mg/kg, ip dosed every other day for 13 days. Particulars: read-out: Drug uptake. The format is ADME, organism-based, Neoplasm.
Series [7] in a line: Toxicity in BALB/c mouse xenografted with human NCI-H460 cells assessed effect on body weight at 40 mg/kg, ip dosed every other day for 13 days. To be noted: in vivo, 312 h. The format is organism-based.
The next series deals with NCI-H1299. Briefly: Growth inhibition of human NCI-H1299 cells incubated for 72 hrs by MTT assay. The format is functional. To be noted: NCI-H1299, 72 h.
Series [8] deals with NCI-H460. Description: Antitumor activity against human NCI-H460 cells xenografted in BALB/c mouse assessed as decrease in tumor volume at 40 mg/kg, ip dosed every other day for 13 days. Type of series: functional, organism-based.
The test system of another series is Calu-6. Briefly: Growth inhibition of human Calu6 cells incubated for 72 hrs by MTT assay. Type of series: functional. Particulars: Calu-6, 72 h.
The test system of series [9] is NCI-H460. Description: Effect on AIMP2 DX2 isoform mRNA expression in human NCI-H460 cells at 1.2 to 10 uM by RT-PCR analysis. Particulars: nci-h460, 10 µM. Type of series: ADME, cell-based.
The species named for series [10] is Mus musculus. To be noted: BALB/c, 40 mg/kg.
Description: Inhibition of tumor AIMP2-DX2 expression in BALB/c mouse xenografted with human NCI-H460 cells at 40 mg/kg, ip dosed every other day for 13 days by SDS-PAGE and Western blotting analysis
A short description of series [11]: Toxicity in BALB/c mouse xenografted with human NCI-H460 cells at 40 mg/kg, ip dosed every other day for 13 days. Particulars: in vivo, 312 h. Type of series: organism-based.
Series [12] concerns the target T1, Aminoacyl tRNA synthase complex-interacting multifunctional protein 2 (Homo sapiens) (UniProt Q13155).
T1 sequence (whole entry): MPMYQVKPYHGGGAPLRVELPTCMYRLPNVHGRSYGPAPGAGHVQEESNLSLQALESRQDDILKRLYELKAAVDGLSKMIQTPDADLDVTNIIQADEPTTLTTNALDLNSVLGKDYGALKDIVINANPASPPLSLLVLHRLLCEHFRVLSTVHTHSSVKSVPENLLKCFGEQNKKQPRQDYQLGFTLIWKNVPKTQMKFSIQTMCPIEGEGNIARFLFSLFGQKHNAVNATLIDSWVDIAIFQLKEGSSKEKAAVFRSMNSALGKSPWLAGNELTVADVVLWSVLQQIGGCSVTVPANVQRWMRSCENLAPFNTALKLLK
Description: Inhibition of DX2-p14/ARF interaction in human SCLC cells assessed as inhibition of cell growth by MTT assay. The format is cell-based.

A further series deals with NSCLC. Briefly: Growth inhibition of human NSCLC. The format is functional.
Series [13] relates to A549. Briefly: Growth inhibition of human A549 cells by MTT assay. Type of series: functional.

Consider four compounds from ChEMBL document CHEMBL4402586, “2-Aminophenylpyrimidines as Novel Inhibitors of Aminoacyl-tRNA Synthetase Interacting Multifunctional Protein 2 (AIMP2)-DX2 for Lung Cancer Treatment” (J Med Chem, 2020).

Activity calls are given as the source filed them. No cut-off for these calls is given here.

What is called GI50 is the concentration that inhibits growth by half. With `CN1CCN(CCOc2cccc(Nc3nccc(-c4ccc(Cl)cc4)n3)c2)CC1`, the “growth inhibition (GI)” value in series [1] was “Non-Toxic”. Also, the GI50 worked out at 0.89 µM with NCI-H460 [2], 1.13 µM in the series with A549 [4], 5.78 µM with NCI-H1299 and 4.22 µM in the series on Calu-6. Moreover, the Activity result (in the series on Mus musculus [3]; in series [7]; in the series on NCI-H460 [9]) was “Non-Toxic” each time. In addition, the result in the series with NCI-H460 [5] and in the series with NCI-H460 [8] was Active. Besides, in series [6], the concentration at 312 h was found to be 0.088 µM. The inhibition entry in the series filed under Mus musculus [10] was “Active”.

`COC1CCCN(c2cc(-c3ccc(Cl)cc3)nc(Nc3cccc(OCCN4CCN(C)CC4)c3)n2)C1` (stereo not drawn): the Activity entry (in series [11]; in the series with Mus musculus [3]; in series [7]; in the series with NCI-H460 [9]) was “Non-Toxic” in each case. The “growth inhibition (GI)” value in series [1] is “Non-Toxic”. Also, the concentration for 50% growth inhibition (GI50) with NCI-H460 [2] turned out to be 0.6 µM; in the series with A549 [4], 2.82 µM; in the series on NCI-H1299 it was 4.18 µM; with Calu-6, 4.4 µM. Further, the outcome in the series with NCI-H460 [5] and in the series on NCI-H460 [8] was Active. Also, the concentration at 312 h in series [6] worked out at 62.7 µM. The inhibition entry in the series listed under Mus musculus [10] is “Active”.

On to `CC1(C)Oc2cc3oc(=O)ccc3cc2C[C@@H]1OC(=O)/C=C/c1ccco1`, for which the concentration for 50% growth inhibition (GI50) in series [12] was 5 to 10 µM; in the series with NSCLC, above 50 µM.

`CN1CCN(CCOc2cccc(Nc3nc(-c4ccc(Cl)cc4)cc(N4CCOCC4)n3)c2)CC1` returned a GI50 in the series with A549 [13] of 6.5 µM.
